This note sets out measurements from PMC9348551, “An amelogenin-based peptide hydrogel promoted the odontogenic differentiation of human dental pulp cells” (Regenerative Biomaterials, 2022).

Series [1] concerns human dental pulp cells (HDPCs). Kind of series: Western blot of DSPP, DMP-1 and ALP in HDPCs. The following applies: D-gel and U0126 for 7 and 14 days, P < 0.05, in words. Format: cell-based. How it is done:
The healthy premolars and third molars extracted for orthodontic or other reasons were collected from patients (14–22 years old) visited Tianjin Stomatological Hospital. This study had been approved by the Ethics Committee of Tianjin Stomatological Hospital (Approval number: 2018012). The informed consent was obtained from each patient. The dental pulp tissue was dissected within 4 h after tooth extraction, minced into 1 mm^3 pieces with sterile scissors and transferred to a cell culture flask containing alpha-modified Eagle’s medium (α-MEM, Gibco, California, USA) supplemented with 10% fetal bovine serum (FBS, Gibco, New York, NY, USA), 100 U/ml penicillin and 100 μg/ml streptomycin (PS, Sigma, California, USA). The cells were cultured in a 5% CO2 incubator at 37°C. The HDPCs at 3–4 passage were used in this study.
The HDPCs (2 × 10^5) were treated under different conditions for different time points. The EMPs (1 µM) were also added to the HDPCs as an extra control group. Then the cells were harvested and lysed in 200 µL lysis buffer (Beyotime, Shanghai, China) and centrifuged (12 000 rpm for 10 min, at 4°C). The protein concentration was evaluated with a BCA kit (Solarbio, Beijing, China). The protein was mixed with 5× loading buffer and heated at 95°C for 5 min, separated by precast PAGE gel (Beyotime, Shanghai, China) and transferred to polyvinylidene fluoride membranes. […]

Series [2] relates to MAPK-ERK1/2 pathways in HDPCs. Kind of series: Western blot of phospho-ERK1/2 in HDPCs. Format: cell-based, human. The following applies: 10 µM inhibitor pretreatment 1 h then D-gel 1 h, P < 0.05, in words. The method, then: The HDPCs (2 × 10^5) were treated under different conditions for different time points. The EMPs (1 µM) were also added to the HDPCs as an extra control group. Then the cells were harvested and lysed in 200 µL lysis buffer (Beyotime, Shanghai, China) and centrifuged (12 000 rpm for 10 min, at 4°C). The protein concentration was evaluated with a BCA kit (Solarbio, Beijing, China). The protein was mixed with 5× loading buffer and heated at 95°C for 5 min, separated by precast PAGE gel (Beyotime, Shanghai, China) and transferred to polyvinylidene fluoride membranes. After blocked at room temperature for 15 min, then incubated with the primary antibody (DSPP, DMP-1, Smad2/3, c jun, p-c jun, c fos, p-c fos, c jun B) (Santa Cruz, California, USA), [p-ERK1/2, ERK1/2, alkaline phosphatase (ALP), p-Smad2/3, GAPDH] (Beyotime, Shanghai, China). Then, the membranes were incubated with the goat anti-rabbit IgG-HRP secondary antibody or goat anti-mouse IgG-HRP secondary antibody for 1 h, respectively. Then, an ultrasensitive chemiluminescence kit (Beyotime, Shanghai, China) was used to detect the protein bands. A chemiluminescence imager (Bio-Rad, California, USA) was used to scan the protein bands. The Image Lab software was used to analyze the relative protein expression levels. […]

Series [3] is described as follows: Proteinase K stability (compound remaining). It is filed as in vitro ADME. The following applies: Tritirachium album (source organism of proteinase K); initial concentration 1.0 mM, 0.1 mg/ml proteinase K, 24 h; read-out: compound remaining after 24 h. The method, then:
(§1) Both Nap-GFFY-G-KWYQNMIR (Comp. 1) and Nap-G^DF^DF^DY-G-KWYQNMIR (Comp. 2) could form hydrogels by heating and cooling, namely L-gel and D-gel (Fig. 1A–C). The ultrastructures of the L-gel and D-gel were both nanofibers (Fig. 1D and E). The mechanical properties of the L-gel and D-gel remained relatively constant (Fig. 1F and G). […] The CAC values of the AMG-P8, L-gel and D-gel were 354.91, 84.25 and 86.62 μM, respectively (Fig. 1I and J). […] That was the result of an initial concentration of 1.0 mM AMG-P8 incubated with 0.1 mg/ml of proteinase K for 24 h, whereas the L-gel and D-gel still retained 62.21% and 78.06% of the compound, respectively, after 24 h (Fig. 1K).
(§2) Figure 1. Chemical structures of (A) AMG-P8 (KWYQNMIR); (B) Comp.1 (Nap-GFFYGKWYQNMIR) and (C) Comp.2 (Nap-G^DF^DF^DYGKWYQNMIR). TEM and optical images of (D) L-gel and (E) D-gel. Dynamic frequency and strain sweep measurements of L-gel and D-gel (F, G). (H) Circular dichroism spectra of L-gel and D-gel. Determination of CAC values of L-gel (I) and D-gel (J). (K) Compound remaining of the AMG-P8, L-gel and D-gel for an initial concentration of 1.0 mM incubated with 0.1 mg/ml of proteinase K for 24 h. TEXT PRINTED IN THE PICTURE: (I) L- gel: CAC=84.25 μM | (J) D- gel: CAC=86.62 μM DOUBTS OF THE COPYIST ABOUT THIS PICTURE: L- gel, CAC: small print, 84.25 could be 84.26 or 64.25 / D- gel, CAC: small print, 86.62 could be 88.62 or 86.82

The target of a further series is proteinase K (Parengyodontium album, UniProt P06873). Nature of the series: Proteinase K stability (compound remaining). Format: in vitro ADME. The conditions noted are these: initial concentration 1.0 mM, 0.1 mg/ml proteinase K. How it is done: as §1, §2
The nature of series [4]: Solubility of the peptide. The following applies: in words. Format: physicochemical.
Series [5] has as its system human dental pulp cells (HDPCs). Format: cell-based. How it is done:
The HDPCs (1 × 10^5 cells/well) in the six well plates were treated with basal medium, AMG-P8, L-gel, D-gel, EMPs for 21 days. After fixed in the 4% paraformaldehyde for 15 min, the mineralized nodules were stained with 1% Alizarin Red (Solarbio, Beijing, China) for 10 min and washed in double-distilled water to eliminate floating colors. Images were captured with a Ti-S microscope (Nikon, Japan). For quantitative analysis of calcified nodules, 10% cetylpyridinium chloride (CPC; Sigma, USA) was used to dissolve Alizarin red. One milliliter of 10% CPC per well was added and shook for 30 min. The absorbance value was measured at 560 nm using a multifunctional microplate reader (Tecan Ltd., Männedorf, Switzerland).

Square brackets hold non-standard residues; d marks the D form. Ends that are not written are not given here. Peptide text beside a SMILES is read from it. * marks the point of attachment. Acetyl(2-naphthyl) = O=C(Cc1ccc2ccccc2c1)*

Chain of proteinase K (P06873 106-384, species assumed): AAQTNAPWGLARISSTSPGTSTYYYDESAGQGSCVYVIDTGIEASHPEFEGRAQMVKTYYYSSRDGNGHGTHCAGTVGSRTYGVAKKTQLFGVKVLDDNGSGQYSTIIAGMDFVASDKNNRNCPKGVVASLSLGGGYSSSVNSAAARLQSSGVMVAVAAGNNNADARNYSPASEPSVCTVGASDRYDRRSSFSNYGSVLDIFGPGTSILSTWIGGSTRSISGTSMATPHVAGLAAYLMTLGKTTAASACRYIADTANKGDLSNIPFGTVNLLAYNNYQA

Regarding `N#CC(=C(/N)Sc1ccccc1N)/C(C#N)=C(/N)Sc1ccccc1N` [U0126], the “effect on D-gel-induced expression of DSPP and ALP” value in series [1] was “suppressed”. Also, in series [2], the “effect on D-gel-induced phospho-ERK1/2 upregulation” value is on record as “specifically blocked”. Regarding `CC[C@H](C)[C@H](NC(=O)[C@H](CCSC)NC(=O)[C@H](CC(N)=O)NC(=O)[C@H](CCC(N)=O)NC(=O)[C@H](Cc1ccc(O)cc1)NC(=O)[C@H](Cc1c[nH]c2ccccc12)NC(=O)[C@H](CCCCN)NC(=O)CNC(=O)[C@H](Cc1ccc(O)cc1)NC(=O)[C@H](Cc1ccccc1)NC(=O)[C@H](Cc1ccccc1)NC(=O)CNC(=O)Cc1ccc2ccccc2c1)C(=O)N[C@@H](CCCNC(=N)N)C(=O)O` [L-gel] ({Acetyl(2-naphthyl)}-GFFYGKWYQNMIR-OH), the share remaining at 24 h, 1 mM in series [3] turned out to be 62.2%. KWYQNMIR [AMG-P8]: the “time within which the peptide was hydrolyzed” value on proteinase K is ≤ 30 min. The solubility entry in series [4] is “good solubility”.

`CC[C@H](C)[C@H](NC(=O)[C@H](CCSC)NC(=O)[C@H](CC(N)=O)NC(=O)[C@H](CCC(N)=O)NC(=O)[C@H](Cc1ccc(O)cc1)NC(=O)[C@H](Cc1c[nH]c2ccccc12)NC(=O)[C@H](CCCCN)NC(=O)CNC(=O)[C@@H](Cc1ccc(O)cc1)NC(=O)[C@@H](Cc1ccccc1)NC(=O)[C@@H](Cc1ccccc1)NC(=O)CNC(=O)Cc1ccc2ccccc2c1)C(=O)N[C@@H](CCCNC(=N)N)C(=O)O` [D-gel] ({Acetyl(2-naphthyl)}-G[dF][dF][dY]GKWYQNMIR-OH): in series [3], the share remaining at 24 h, 1 mM was determined as 78.1%. Also, in series [5], the “Alizarin red OD value as percent of the EMPs group” value is “about 80%”.
